Assay results from article PMC8979739, “Phytochemical Profiling of the Leaf Extract of Ximenia americana var. caffra and Its Antioxidant, Antibacterial, and Antiaging Activities In Vitro and in Caenorhabditis elegans: A Cosmeceutical and Dermatological Approach” (Oxidative Medicine and Cellular Longevity, 2022).
Like-named read-outs stand apart in the source and are kept apart here.

Key:
FRAP assay = experiment: FRAP assay
Procedure: (§1) Total phenolic content was estimated using the Folin–Ciocalteu method as described in a previous study, while antioxidant activity was determined using two colorimetric methods, DPPH assay and FRAP assay. The analysis was performed as in the previous study.

[1] = biological target: Porcine pancreatic elastase (Sus scrofa, UniProt P00772); experiment: Elastase inhibition; assay type: biochemical
Sequence of Porcine pancreatic elastase (P00772 27-266): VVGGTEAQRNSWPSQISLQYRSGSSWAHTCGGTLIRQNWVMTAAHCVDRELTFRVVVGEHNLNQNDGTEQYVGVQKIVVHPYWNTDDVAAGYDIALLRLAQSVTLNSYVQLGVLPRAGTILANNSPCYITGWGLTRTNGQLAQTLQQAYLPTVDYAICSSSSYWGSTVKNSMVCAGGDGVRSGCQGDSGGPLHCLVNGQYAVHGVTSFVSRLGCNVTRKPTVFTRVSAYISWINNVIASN
Procedure: This assay was performed according to a previous study. Porcine pancreatic elastase was used in this assay at stock concentration of 3.33 mg/mL in sterile water. N-Succinyl-[…]-nitroanilide ([…]) was used as a substrate and dissolved in buffer to make up 1.6 mM solution. A serial dilution of the extract with amount of 50 μL each was incubated with the enzyme for 15 min, and the substrate was added subsequently and makes up the final reaction mixture of 250 μL. Absorbance value was measured at 400 nm using a microplate reader. Each measurement was made in triplicate. The percentage of elastase inhibition (%) was calculated according to the formula: inhibition (%) = [(Acontrol - Asample/Acontrol) × 100]. […] A control: absorbance value of the elastase activity from negative control (solution without samples)

DPPH assay = experiment: DPPH assay
Procedure: as §1

[2] = biological target: Collagenase from Clostridium histolyticum; experiment: Collagenase inhibition; assay type: biochemical; details: mean ± SD
Procedure: The assay was performed according to a previous study. Collagenase was obtained from Clostridium histolyticum (ChC—EC.3.4.23.3), and the assay was performed in 50 mM Tricine buffer consisting of 400 mM NaCl and 10 mM CaCl2 (pH 7.5). Collagenase was dissolved in the buffer to achieve an enzyme activity concentration of 0.8 unit/mL, and the synthetic substrate N-[3-(2-furyl) acryloyl]-Leu-Gly-Pro-Ala (FALGPA) was dissolved in the buffer to make up the final concentration of 2 mM. Serial diluted samples were incubated with the enzyme for 15 min. After that, the substrate was added to each serial solution. Absorbance was measured using a microplate reader (Costar, 96) at 490 nm. Each measurement was made in triplicate. Percentage of collagenase inhibition (%) was calculated according to the formula: inhibition (%) = [(Acontrol − Asample/Acontrol) × 100].
A sample: absorbance value of the collagenase activity from samples or positive control (quercetin)
A control: absorbance value of the collagenase activity from negative control (solution without samples)

hyaluronidase = biological target: T1, hyaluronidase (Bos taurus, UniProt Q2YDK3); experiment: Hyaluronidase inhibition; assay type: biochemical; details: mean ± SD
T1 sequence (Q2YDK3 36-553): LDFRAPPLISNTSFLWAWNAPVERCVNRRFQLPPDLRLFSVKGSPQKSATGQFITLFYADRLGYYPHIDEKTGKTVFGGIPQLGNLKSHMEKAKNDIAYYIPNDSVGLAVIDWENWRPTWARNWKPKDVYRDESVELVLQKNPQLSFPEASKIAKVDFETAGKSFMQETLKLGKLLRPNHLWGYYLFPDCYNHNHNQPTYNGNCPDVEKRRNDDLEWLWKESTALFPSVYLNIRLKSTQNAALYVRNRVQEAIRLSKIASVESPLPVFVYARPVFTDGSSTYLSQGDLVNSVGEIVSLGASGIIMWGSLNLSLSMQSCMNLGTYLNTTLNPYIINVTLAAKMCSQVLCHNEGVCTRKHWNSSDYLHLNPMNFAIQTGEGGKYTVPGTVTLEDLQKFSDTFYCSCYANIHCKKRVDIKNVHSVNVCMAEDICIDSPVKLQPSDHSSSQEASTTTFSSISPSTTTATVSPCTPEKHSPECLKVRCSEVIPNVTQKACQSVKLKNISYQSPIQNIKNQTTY
Procedure: The hyaluronidase inhibition assay was performed using hyaluronidase (1.5 mg/mL) and the substrate hyaluronic acid (1 mg/ml in 0.1 M acetate buffer; pH 3.5), according to a previous study. The reaction mixture was prepared consisting of 25 μL of CaCl2 (12.5 mM), 12.5 μL of each test sample (serial dilution), hyaluronidase (1.5 mg/mL), and 100 μL substrate hyaluronic acid. Afterwards, reaction mixture was placed in a water bath at 100°C for 3 min, and subsequently, 25 μL of 0.8 M KBO2 was added. After cooling to the room temperature, 800 μL DMAB (4 g DMAB in 40 mL acetic acid and 5 mL 10 N HCl) was added to the mixture following the incubation for 20 min. The absorbance was measured at 600 nm. Each measurement was made in triplicate. The percentage of hyaluronidase inhibition (%) was calculated according to the formula: inhibition (%) = [(Acontrol − Asample/Acontrol) × 100].
A sample: absorbance value of the hyaluronidase activity from samples or positive control (quercetin)
A control: absorbance value of the hyaluronidase activity from negative control (solution without samples)

mushroom tyrosinase = mushroom tyrosinase (Agaricus bisporus, UniProt C7FF04); experiment: Tyrosinase inhibition; assay type: biochemical; details: mean ± SD
Sequence of mushroom tyrosinase (C7FF04 2-392): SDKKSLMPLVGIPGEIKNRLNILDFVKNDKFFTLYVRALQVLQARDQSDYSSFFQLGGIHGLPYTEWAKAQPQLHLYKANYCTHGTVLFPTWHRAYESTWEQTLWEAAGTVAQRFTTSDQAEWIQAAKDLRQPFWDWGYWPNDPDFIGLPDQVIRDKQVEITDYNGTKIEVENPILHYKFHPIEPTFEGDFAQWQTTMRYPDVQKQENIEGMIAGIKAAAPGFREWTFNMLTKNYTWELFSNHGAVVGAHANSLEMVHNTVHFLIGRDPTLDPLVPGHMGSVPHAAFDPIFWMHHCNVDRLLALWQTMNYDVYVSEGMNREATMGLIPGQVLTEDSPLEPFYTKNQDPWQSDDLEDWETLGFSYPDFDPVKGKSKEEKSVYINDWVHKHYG
Procedure: This assay was performed using mushroom tyrosinase and L-DOPA as substrates, according to a previous study with slight modifications. […] After adding L-DOPA, the reaction mixture was monitored at 475 nm for dopachrome formation using a microplate reader (Costar, 96). Each measurement was made in triplicate. The percentage of tyrosinase inhibition (%) was calculated according to the formula: inhibition (%) = [(Acontrol − Asample/Acontrol) × 100]. […] A control: absorbance value of the tyrosinase activity from negative control (solution without samples)

[3] = mean ± SD, read-out: Elastase IC50 (converted)

Structure (SMILES) | Collagenase IC50 [2] [µg/mL] | IC50 [1, 3] [µM] | other results
O=c1c(O)c(-c2ccc(O)c(O)c2)oc2cc(O)cc(O)c12 [Quercetin] | – | – | FRAP (FRAP assay): 24.04 ± 1.23 mM FeSO4/mg extract
O=c1cc(CO)occ1O [Kojic acid, reference compound] | – | – | IC50 [1]: 152 µM
O=C1O[C@H]([C@@H](O)CO)C(O)=C1O [Ascorbic acid] | – | – | DPPH (EC50) (DPPH assay): 2.92 ± 0.29 µg/mL
O.Oc1cc(O)c2c(c1)O[C@H](c1ccc(O)c(O)c1)[C@@H](O)C2 [Catechin] | 29.33 ± 2.4 | – | Hyaluronidase IC50 (hyaluronidase): 22.99 ± 0.2 µg/mL; Elastase IC50 ([1]; mean ± SD): 15.00 ± 5.9 µg/mL; Tyrosinase IC50 (mushroom tyrosinase): 22.54 ± 4.61 µg/mL
C[C@@H]1O[C@@H](OC[C@H]2O[C@@H](Oc3c(-c4ccc(O)c(O)c4)oc4cc(O)cc(O)c4c3=O)[C@H](O)[C@@H](O)[C@@H]2O)[C@H](O)[C@H](O)[C@H]1O [Rutin] | 63.46 ± 3.4 | 199 | –
O=C(O)[C@]1(O)C[C@@H](O)[C@@H](O)[C@H](O)C1 [Quinic acid] | 52.78 ± 1.8 | 748 | –
Oc1cc(O)c2c(c1)O[C@H](c1ccc(O)c(O)c1)[C@H](O)C2 [Epicatechin] | 65.96 ± 7.8 | 145 | –
